Measured values from PubChem BioAssay AID328 (DTP/NCI, 2004).
Where “and” joins values, the source holds several entries; their conditions need not be identical. Equal values may be shown once. Toxic doses and inconclusive results are not listed. The calls were made as follows: active = survival T/C of 150% or more; inactive = T/C below 125% in these data.

Test system: BDF1 mice, P388 leukemia ip, median survival T/C
Test: NCI In Vivo Anticancer Drug Screen. Data for tumor model P388 Leukemia (intraperitoneal) in B6D2F1 (BDF1) mice
Conditions: endpoint: median survival time, higher = longer survival
Outline: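 Survival ratio, drug arm over vehicle arm, in mice with a transplanted tumour.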

[1] = dose: 50.0 mg/kg/injection, schedule: Q04DX003 (ip), vehicle: saline with Tween-80
[2] = dose: 100.0 mg/kg/injection, schedule: Q04DX003 (ip), vehicle: saline with Tween-80
[3] = dose: 200.0 mg/kg/injection, schedule: Q04DX003 (ip), vehicle: saline with Tween-80
[4] = dose: 400.0 mg/kg/injection, schedule: Q04DX003 (ip), vehicle: saline with Tween-80
[5] = dose: 25.0 mg/kg/injection, schedule: Q01DX009 (ip), vehicle: saline with Tween-80
[6] = dose: 50.0 mg/kg/injection, schedule: Q01DX009 (ip), vehicle: saline with Tween-80
[7] = dose: 100.0 mg/kg/injection, schedule: Q01DX009 (ip), vehicle: saline with Tween-80
[8] = dose: 25.0 mg/kg/injection, schedule: Q04DX003 (ip), vehicle: Klucel (hydroxypropylcellulose) (HPC)
[9] = dose: 2.0 mg/kg/injection, schedule: Q01DX009 (ip), vehicle: saline
[10] = dose: 12.5 mg/kg/injection, schedule: Q01DX009 (ip), vehicle: Klucel (hydroxypropylcellulose) (HPC)
[11] = dose: 25.0 mg/kg/injection, schedule: Q01DX009 (ip), vehicle: Klucel (hydroxypropylcellulose) (HPC)
[12] = dose: 50.0 mg/kg/injection, schedule: Q01DX009 (ip), vehicle: Klucel (hydroxypropylcellulose) (HPC)
[13] = dose: 100.0 mg/kg/injection, schedule: Q01DX009 (ip), vehicle: saline
[14] = dose: 200.0 mg/kg/injection, schedule: Q01DX009 (ip), vehicle: saline

Measured: T/C

CC(C)C(OCc1ccccc1)C(=O)O (configuration not stated)
inactive: [1] 100 % of control | [2] 108 % of control | [3] 108 % of control | [4] 108 % of control

FC(F)(F)c1cccc(-c2nc3nc(Cl)c(Cl)nc3[nH]2)c1
inactive: [5] 99 % of control | [6] 94 % of control | [1] 108 % of control | [7] 103 % of control

CC(=O)OC1CC(OC2C(O)CC(OC3C(O)CC(OC4CCC5(C)C(CCC6C5CCC5(C)C(C7=CC(=O)OC7)C(O)CC65O)C4)OC3C)OC2C)OC(C)C1OC1OC(CO)C(O)C(O)C1O (configuration not stated)
inactive: dose: 12.5 mg/kg/injection, schedule: Q01DX010 (ip), vehicle: carboxymethylcellulose (CMC) 109 % of control | dose: 12.5 mg/kg/injection, schedule: Q04DX003 (ip), vehicle: Klucel (hydroxypropylcellulose) (HPC) 110 % of control | dose: 25.0 mg/kg/injection, schedule: Q01DX010 (ip), vehicle: carboxymethylcellulose (CMC) 95 % of control | [8] 120 % of control

C[CH2][Pb]([CH2]C)([CH2]C)[O][As](=O)(O)c1ccc(N)cc1
inactive: dose: 1.5 mg/kg/injection, schedule: Q01DX009 (ip), vehicle: saline 107 % of control | [9] 111 % of control | dose: 3.0 mg/kg/injection, schedule: Q01DX009 (ip), vehicle: saline 103 % of control | dose: 4.5 mg/kg/injection, schedule: Q01DX009 (ip), vehicle: saline 95 % of control

COc1cc([C@@H]2c3cc4c(cc3C(Br)[C@H]3COC(=O)[C@H]23)OCO4)cc(OC)c1OC (some centres not stated)
active: dose: 7.5 mg/kg/injection, schedule: Q01DX009 (ip), vehicle: Klucel (hydroxypropylcellulose) (HPC) 161 % of control | dose: 15.0 mg/kg/injection, schedule: Q01DX009 (ip), vehicle: Klucel (hydroxypropylcellulose) (HPC) 190 % of control
inactive: dose: 1.0 mg/kg/injection, schedule: Q01DX010 (ip), vehicle: carboxymethylcellulose (CMC) 104 % of control | dose: 2.1 mg/kg/injection, schedule: Q01DX010 (ip), vehicle: carboxymethylcellulose (CMC) 104 % of control | dose: 4.2 mg/kg/injection, schedule: Q01DX010 (ip), vehicle: carboxymethylcellulose (CMC) 104 % of control | dose: 30.0 mg/kg/injection, schedule: Q01DX009 (ip), vehicle: Klucel (hydroxypropylcellulose) (HPC) 95 % of control

CN1CC2OC2C2C1N2C#N (configuration not stated)
inactive: dose: 25.0 mg/kg/injection, schedule: Q01DX005 (ip), vehicle: saline 97 % of control | dose: 50.0 mg/kg/injection, schedule: Q01DX005 (ip), vehicle: saline 106 % of control | dose: 100.0 mg/kg/injection, schedule: Q01DX005 (ip), vehicle: saline 111 % of control | dose: 200.0 mg/kg/injection, schedule: Q01DX005 (ip), vehicle: saline 115 % of control

CCC(=O)NC1=C(N2CC2)C(=O)C(NC(=O)CC)=C(N2CC2)C1=O
active: dose: 1.0 mg/kg/injection, schedule: Q01DX009 (ip), vehicle: saline 171 % of control and 185 % of control | [9] 225 % of control and 228 % of control
inactive: dose: 4.0 mg/kg/injection, schedule: Q01DX009 (ip), vehicle: saline 90 % of control and 119 % of control

COc1ccc2cc3[n+](cc2c1OC)CCc1cc2c(cc1-3)OCO2
inactive: dose: 1.0 mg/kg/injection, schedule: Q01DX010 (ip), vehicle: steriod suspending solution 104 % of control | dose: 2.0 mg/kg/injection, schedule: Q01DX010 (ip), vehicle: steriod suspending solution 122 % of control | dose: 6.0 mg/kg/injection, schedule: Q01DX010 (ip), vehicle: saline 104 % of control

CCCCC/C(C)=N\Nc1ccccn1
inactive: [10] 100 % of control | [11] 113 % of control | [12] 104 % of control and 113 % of control | dose: 100.0 mg/kg/injection, schedule: Q01DX009 (ip), vehicle: Klucel (hydroxypropylcellulose) (HPC) 118 % of control

CC1=C(Br)C(=O)C(Br)=C(Br)C1=O
inactive: [8] 104 % of control | dose: 35.0 mg/kg/injection, schedule: Q01DX009 (ip), vehicle: Klucel (hydroxypropylcellulose) (HPC) 109 % of control | dose: 37.5 mg/kg/injection, schedule: Q01DX001 (ip), vehicle: Klucel (hydroxypropylcellulose) (HPC) 95 % of control | dose: 50.0 mg/kg/injection, schedule: Q04DX003 (ip), vehicle: Klucel (hydroxypropylcellulose) (HPC) 100 % of control | dose: 55.0 mg/kg/injection, schedule: Q01DX009 (ip), vehicle: Klucel (hydroxypropylcellulose) (HPC) 90 % of control | dose: 75.0 mg/kg/injection, schedule: Q01DX001 (ip), vehicle: Klucel (hydroxypropylcellulose) (HPC) 109 % of control | dose: 100.0 mg/kg/injection, schedule: Q04DX003 (ip), vehicle: Klucel (hydroxypropylcellulose) (HPC) 90 % of control | dose: 150.0 mg/kg/injection, schedule: Q01DX001 (ip), vehicle: Klucel (hydroxypropylcellulose) (HPC) 100 % of control

CC(=O)Nc1c(Cl)c(Cl)c2c(c1Cl)C(=O)c1cc(Cl)ccc1-2
inactive: [7] 90 % of control | [2] 90 % of control | [3] 90 % of control | [4] 95 % of control

CC(=O)NC1CCCN(O)C(=O)/C=C(/C)CCOC(=O)C(NC(C)=O)CCCN(O)C(=O)/C=C(/C)CCOC(=O)C(NC(C)=O)CCCN(O)C(=O)/C=C(/C)CCOC1=O.[Fe] (configuration not stated)
inactive: [10] 86 % of control | [11] 92 % of control | [12] 99 % of control

O=c1ccc2cc(OC3OC(CO)C(O)C(O)C3O)c(O)cc2o1 (configuration not stated)
inactive: [13] 95 % of control | dose: 100.0 mg/kg/injection, schedule: Q04DX003 (ip), vehicle: alcohol 105 % of control | [14] 104 % of control | dose: 200.0 mg/kg/injection, schedule: Q04DX003 (ip), vehicle: alcohol 100 % of control | dose: 400.0 mg/kg/injection, schedule: Q01DX009 (ip), vehicle: saline 109 % of control | dose: 400.0 mg/kg/injection, schedule: Q04DX003 (ip), vehicle: alcohol 110 % of control

NS(=O)(=O)c1ccc(NC(=S)NC(=O)/C=C/c2ccccc2)cc1
inactive: dose: 100.0 mg/kg/injection, schedule: Q04DX003 (sc), vehicle: olive oil, sesame oil, peanut oil 90 % of control | dose: 200.0 mg/kg/injection, schedule: Q04DX003 (sc), vehicle: olive oil, sesame oil, peanut oil 90 % of control | dose: 400.0 mg/kg/injection, schedule: Q04DX003 (sc), vehicle: olive oil, sesame oil, peanut oil 90 % of control

Cc1ccc(C(=O)Cl)cc1S(=O)(=O)F
inactive: [5] 100 % of control | [1] 101 % of control | [7] 93 % of control | [2] 109 % of control | [3] 101 % of control

CC(C)C[C@H](O)C(=O)O
inactive: dose: 25.0 mg/kg/injection, schedule: Q01DX009 (ip), vehicle: saline 95 % of control | dose: 44.0 mg/kg/injection, schedule: Q01DX009 (ip), vehicle: saline 109 % of control | dose: 66.0 mg/kg/injection, schedule: Q01DX009 (ip), vehicle: saline 109 % of control | [13] 95 % of control and 120 % of control | dose: 150.0 mg/kg/injection, schedule: Q01DX009 (ip), vehicle: saline 118 % of control | [14] 95 % of control

CCOC(=O)N(CCN(C(=O)OCC)c1ccccc1)c1ccccc1
inactive: [6] 98 % of control | [7] 108 % of control | dose: 200.0 mg/kg/injection, schedule: Q01DX009 (ip), vehicle: saline with Tween-80 110 % of control

Cc1ccc(C)c(NC(=O)c2cccc(Cl)c2)c1
inactive: [2] 104 % of control | [3] 100 % of control | [4] 104 % of control
